Data on 22 molecules can be found in patent US20230165846A1, “HETEROCYCLIC GLP-1 AGONISTS” (Gasherbrum Bio, Inc., priority 2020, published 2023).

Sequence of GLP-1 Receptor (P43220 24-463): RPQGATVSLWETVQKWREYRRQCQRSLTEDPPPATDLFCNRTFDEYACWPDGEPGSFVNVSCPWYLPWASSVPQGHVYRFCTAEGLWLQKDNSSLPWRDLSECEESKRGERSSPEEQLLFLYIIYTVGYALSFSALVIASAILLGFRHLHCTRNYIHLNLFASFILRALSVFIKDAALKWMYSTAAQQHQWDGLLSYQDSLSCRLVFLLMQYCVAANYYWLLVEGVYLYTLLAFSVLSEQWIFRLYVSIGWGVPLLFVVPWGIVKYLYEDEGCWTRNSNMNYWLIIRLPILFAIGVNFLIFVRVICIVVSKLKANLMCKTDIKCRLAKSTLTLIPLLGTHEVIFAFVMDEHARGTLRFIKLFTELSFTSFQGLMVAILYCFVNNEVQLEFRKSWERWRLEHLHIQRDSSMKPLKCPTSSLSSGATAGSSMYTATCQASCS

The experiment addresses GLP-1 Receptor (Homo sapiens, UniProt P43220). The experiment in a line: GLP-1R agonist cAMP stimulation assay, Method 2 (HDB HEK293/GLP1R/CRE-LUC, Cisbio cAMP dynamic 2 kit). It counts as cell-based. The following applies: HEK293/GLP1R/CRE-LUC cells (HD Biosciences); 30 min at 37° C.; 0.5 mM IBMX, 0.1% BSA; geometric mean where n>=2; read-out: GLP1R cAMP Stimulation DR: EC50 (nM) Method 2 (HDB). As for the experimental part:
Method 2: Activation of GLP-1 receptor is known to stimulate cyclic AMP (cAMP) production in cells which indicates primary coupling to the Gas subunit of the G protein heterotrimeric complex.
To optimize functional activity directed toward Gas coupling, a HEK293/CRE-Luc cell line developed by HDB stably expressing the GLP-1 Receptor was used. 200× concentration of compound working solutions were prepared (Agilent Technologies Bravo) with ½log serial dilution in 384-well Echo LDV plate (Labcyte, Cat# LP-0200). […] Seal the plate and incubate at 37° C. with 5% CO2 for 30 min.
After incubation the cAMP assay signal was generated using cAMP dynamic 2 Kit (Cisbio). 5 µL cAMP-d2 working solution was added to each well, followed with 5 µL Anti-cAMP antibody-cryptate working solution added to each well using ThermoFisher Multidrop Combi. Incubate at room temperature for 1 hour protected from light.
%Activity = 100% x (mean RLU of test sample - mean RLU of vehicle control) / (mean RLU of MAX control - mean RLU of vehicle control))
This is done to account for the lognormal distribution of multiple estimates of EC50 values. In practice geometric mean is calculated by first generating log values of EC50, averaging replicates and then calculating the antilog of the average.
For the molecule `O=C(O)c1ccc2nc(CC3CC=C(c4cccc(OCc5ccc(Cl)cc5F)n4)CC3)n(C[C@@H]3CCO3)c2n1` (single isomer, unassigned) [Compound 102c], the 50% effective concentration (EC50) came out at 0.044 nM. In the case of `O=C(O)c1ccc2nc(CC3CC=C(c4ncc(F)c(OCc5ccc(Cl)cc5F)n4)CC3)n(C[C@@H]3CCO3)c2n1` (stereo partly drawn) [Compound 114a, 2-((4-(4-((4-chloro-2-fluorobenzyl)oxy)-5-fluoropyrimidin-2-yl)cyclohex-3-en-1-yl)methyl)-3-(((S)-oxetan-2-yl)methyl)-3H-imidazo[4,5-b]pyridine-5-carboxylic acid] it was 0.02 nM; in that of `CC#CCn1c(CC2CC=C(c3cccc(OCc4ccc(Cl)cc4F)n3)CC2)nc2ccc(C(=O)O)nc21` (stereo not shown) [Compound 128, 3-(but-2-yn-1-yl)-2-((4-(6-((4-chloro-2-fluorobenzyl)oxy)pyridin-2-yl)cyclohex-3-en-1-yl)methyl)-3H-imidazo[4,5-b]pyridine-5-carboxylic acid], 59 nM; in that of `CC(C)(C#N)Cn1c(CC2CC=C(c3ncc(F)c(OCc4ccc(Cl)cc4F)n3)CC2)nc2ccc(C(=O)O)nc21` (stereo not shown) [Compound 126, 2-((4-(4-((4-chloro-2-fluorobenzyl)oxy)-5-fluoropyrimidin-2-yl)cyclohex-3-en-1-yl)methyl)-3-(2-cyano-2-methylpropyl)-3H-imidazo[4,5-b]pyridine-5-carboxylic acid], 0.37 nM.

Turning to `N#Cc1ccc(COc2nc(C3=CCC(Cc4nc5ccc(C(=O)O)nc5n4C[C@@H]4CCO4)CC3)ccc2F)c(F)c1` (stereo partly drawn) [Compound 115a, 2-((4-(6-((4-cyano-2-fluorobenzyl)oxy)-5-fluoropyridin-2-yl)cyclohex-3-en-1-yl)methyl)-3-(((S)-oxetan-2-yl)methyl)-3H-imidazo[4,5-b]pyridine-5-carboxylic acid], the concentration giving a half-maximal response (EC50) turned out to be 0.018 nM. Turning to `O=C(O)c1cnc2nc(CC3CC=C(c4cccc(OCc5ccc(Cl)cc5F)n4)CC3)n(C[C@@H]3CCO3)c2c1` (stereo partly drawn) [Compound 118a, 2-((4-(6-((4-chloro-2-fluorobenzyl)oxy)pyridin-2-yl)cyclohex-3-en-1-yl)methyl)-1-(((S)-oxetan-2-yl)methyl)-1H-imidazo[4,5-b]pyridine-6-carboxylic acid], the concentration giving a half-maximal response (EC50) came to 0.02 nM. Consider `N#Cc1ccc(COc2cccc(C3=CCC(Cc4nc5ccc(C(=O)O)nc5n4C[C@@H]4CCO4)CC3)n2)c(F)c1` (single isomer, unassigned) [Compound 101b], for which the concentration giving a half-maximal response (EC50) amounted to 0.0088 nM. As for `COCCn1c(CC2CC=C(c3ncc(F)c(OCc4ccc(Cl)cc4F)n3)CC2)nc2ccc(C(=O)O)nc21` (stereo not shown) [Compound 127], the figure is 0.83 nM.

`N#Cc1ccc(COc2cccc(C3=CCC(Cc4nc5cnc(C(=O)O)cc5n4C[C@@H]4CCO4)CC3)n2)c(F)c1` (stereo partly drawn) [Compound 117a, 2-((4-(6-((4-cyano-2-fluorobenzyl)oxy)pyridin-2-yl)cyclohex-3-en-1-yl)methyl)-1-(((S)-oxetan-2-yl)methyl)-1H-imidazo[4,5-c]pyridine-6-carboxylic acid]: the EC50 is 0.37 nM. Turning to `N#Cc1ccc(COc2nc(C3=CCC(Cc4nc5ccc(C(=O)O)nc5n4CC4CC4)CC3)ncc2F)c(F)c1` (stereo not shown) [Compound 122, 2-((4-(4-((4-cyano-2-fluorobenzyl)oxy)-5-fluoropyrimidin-2-yl)cyclohex-3-en-1-yl)methyl)-3-(cyclopropylmethyl)-3H-imidazo[4,5-b]pyridine-5-carboxylic acid], the EC50 is 0.43 nM. For the molecule `N#Cc1ccc(COc2cccc(C3=CCC(Cc4nc5ccc(C(=O)O)nc5n4C[C@@H]4CCO4)CC3)n2)c(F)c1` (single isomer, unassigned) [Compound 101c], the EC50 stood at 0.083 nM. `O=C(O)c1ccc2nc(CC3CC=C(c4ncc(F)c(OCc5ccc(Cl)cc5F)n4)CC3)n(C[C@@H]3CCO3)c2n1` (single isomer, unassigned) [Compound 114b]: the 50% effective concentration (EC50) came out at 0.012 nM. Consider `O=C(O)c1ccc2nc(CC3CC=C(c4ncc(F)c(OCc5ccc(Cl)cn5)n4)CC3)n(C[C@@H]3CCO3)c2n1` (stereo partly drawn) [Compound 120a, 2-((4-(4-((5-chloropyridin-2-yl)methoxy)-5-fluoropyrimidin-2-yl)cyclohex-3-en-1-yl)methyl)-3-(((S)-oxetan-2-yl)methyl)-3H-imidazo[4,5-b]pyridine-5-carboxylic acid], for which the half-maximal effective concentration (EC50) was 0.12 nM. In the case of `CC(C)(C#N)Cn1c(CC2CC=C(c3ncc(F)c(OCc4ccc(C#N)cc4F)n3)CC2)nc2ccc(C(=O)O)nc21` (stereo not shown) [Compound 124, 2-((4-(4-((4-cyano-2-fluorobenzyl)oxy)-5-fluoropyrimidin-2-yl)cyclohex-3-en-1-yl)methyl)-3-(2-cyano-2-methylpropyl)-3H-imidazo[4,5-b]pyridine-5-carboxylic acid] it was 0.39 nM; in that of `O=C(O)c1ccc2nc(CC3CC=C(c4ccc(F)c(OCc5ccc(Cl)cc5F)n4)CC3)n(C[C@@H]3CCO3)c2n1` (stereo partly drawn) [Compound 113a, 2-((4-(6-((4-chloro-2-fluorobenzyl)oxy)-5-fluoropyridin-2-yl)cyclohex-3-en-1-yl)methyl)-3-(((S)-oxetan-2-yl)methyl)-3H-imidazo[4,5-b]pyridine-5-carboxylic acid], 0.015 nM; in that of `O=C(O)c1cc2c(cn1)nc(CC1CC=C(c3cccc(OCc4ccc(Cl)cc4F)n3)CC1)n2C[C@@H]1CCO1` (stereo partly drawn) [Compound 116a, 2-((4-(6-((4-chloro-2-fluorobenzyl)oxy)pyridin-2-yl)cyclohex-3-en-1-yl)methyl)-1-(((S)-oxetan-2-yl)methyl)-1H-imidazo[4,5-c]pyridine-6-carboxylic acid], 0.73 nM. Take `O=C(O)c1cnc2nc(CC3CC=C(c4nccc(OCc5ccc(Cl)cc5F)n4)CC3)n(C[C@@H]3CCO3)c2c1` (stereo partly drawn) [Compound 119a, 2-((4-(4-((4-chloro-2-fluorobenzyl)oxy)pyrimidin-2-yl)cyclohex-3-en-1-yl)methyl)-1-(((S)-oxetan-2-yl)methyl)-1H-imidazo[4,5-b]pyridine-6-carboxylic acid]: the EC50 was determined as 0.17 nM.

Turning to `N#Cc1ccc(COc2nc(C3=CCC(Cc4nc5ccc(C(=O)O)nc5n4CC4(C#N)CC4)CC3)ncc2F)c(F)c1` (stereo not shown) [Compound 123, 2-((4-(4-((4-cyano-2-fluorobenzyl)oxy)-5-fluoropyrimidin-2-yl)cyclohex-3-en-1-yl)methyl)-3-((1-cyanocyclopropyl)methyl)-3H-imidazo[4,5-b]pyridine-5-carboxylic acid], the concentration giving a half-maximal response (EC50) amounted to 0.067 nM. Turning to `O=C(O)c1ccc2nc(CC3CC=C(c4cccc(OCc5ccc(Cl)cn5)n4)CC3)n(C[C@@H]3CCO3)c2n1` (stereo partly drawn) [Compound 121a, 2-((4-(6-((5-chloropyridin-2-yl)methoxy)pyridin-2-yl)cyclohex-3-en-1-yl)methyl)-3-(((S)-oxetan-2-yl)methyl)-3H-imidazo[4,5-b]pyridine-5-carboxylic acid], the EC50 is 0.027 nM. In the case of `N#CC1(Cn2c(CC3CC=C(c4ncc(F)c(OCc5ccc(Cl)cc5F)n4)CC3)nc3ccc(C(=O)O)nc32)CC1` (stereo not shown) [Compound 125, 2-((4-(4-((4-chloro-2-fluorobenzyl)oxy)-5-fluoropyrimidin-2-yl)cyclohex-3-en-1-yl)methyl)-3-((1-cyanocyclopropyl)methyl)-3H-imidazo[4,5-b]pyridine-5-carboxylic acid] it was 0.045 nM; in that of `O=C(O)c1ccc2nc(CC3CC=C(c4cccc(OCc5ccc(Cl)cc5F)n4)CC3)n(C[C@@H]3CCO3)c2n1` (single isomer, unassigned) [Compound 102b], 0.007 nM; in that of `O=C(O)c1ccc2nc(CC3CC=C(c4ncc(F)c(OCc5ccc(Cl)cc5F)n4)CC3)n(C[C@@H]3CCO3)c2n1` (single isomer, unassigned) [Compound 114c], 0.13 nM.
